Test results as given in ChEMBL document CHEMBL4673406, “Discovery and Preclinical Evaluation of BMS-986242, a Potent, Selective Inhibitor of Indoleamine-2,3-dioxygenase 1” (ACS Med Chem Lett, 2021).

Tests used:
Cytochrome P450 2C19 = Cytochrome P450 2C19 (Homo sapiens, UniProt P33261); assay: Inhibition of human CYP2C19; format: ADME
[1] = AUC in cynomolgus monkey at 5 mg/kg, po; format: ADME, organism-based, Macaca fascicularis; design: dose 5 mg/kg; conditions: in vivo
[2] = Half life in cynomolgus monkey at 1 mg/kg, iv; format: ADME, organism-based, Macaca fascicularis; conditions: in vivo
[3] = Half life in dog at 1 mg/kg, iv; format: ADME, organism-based, Canis lupus familiaris; conditions: in vivo
[4] = Protein binding in human plasma assessed as free fraction; format: ADME, cell-free
[5] = Oral bioavailability in rat at 2 mg/kg; format: ADME, organism-based; conditions: in vivo
[6] = Oral bioavailability in mouse at 6 mg/kg; format: ADME, organism-based; conditions: in vivo
[7] = Permeability of the compound at pH 7.4 by PAMPA; format: ADME; conditions: read-out: permeability
[8] = Metabolic stability in dog hepatocytes assessed as CYP450-mediated compound metabolism by measuring half life; format: ADME, cell-based, Canis lupus familiaris, Hepatocyte
Cytochrome P450 2C9 = Cytochrome P450 2C9 (Homo sapiens, UniProt P11712); assay: Inhibition of human CYP2C9; format: ADME
Cytochrome P450 2C9, sequence (P11712 whole entry): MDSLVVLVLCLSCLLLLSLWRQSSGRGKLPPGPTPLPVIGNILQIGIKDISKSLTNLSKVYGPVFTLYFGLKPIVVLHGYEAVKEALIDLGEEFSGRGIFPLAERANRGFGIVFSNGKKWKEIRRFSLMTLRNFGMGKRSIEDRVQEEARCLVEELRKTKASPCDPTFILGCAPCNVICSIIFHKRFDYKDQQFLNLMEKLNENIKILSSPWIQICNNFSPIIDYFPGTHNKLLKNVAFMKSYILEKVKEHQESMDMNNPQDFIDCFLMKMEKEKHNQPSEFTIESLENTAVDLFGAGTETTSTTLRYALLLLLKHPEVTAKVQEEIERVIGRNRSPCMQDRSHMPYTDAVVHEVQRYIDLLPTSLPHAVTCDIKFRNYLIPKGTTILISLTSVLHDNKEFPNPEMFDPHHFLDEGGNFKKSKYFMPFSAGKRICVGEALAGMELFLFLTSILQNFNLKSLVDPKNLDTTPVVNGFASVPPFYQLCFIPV

[9] = Permeability across basal to apical side in human Caco-2 cells; format: ADME, cell-based; conditions: read-out: permeability
[10] = target: Acetylcholine receptor subunit alpha (Homo sapiens, UniProt P02708); assay: Inhibition of alpha1 nAChR (unknown origin)
Acetylcholine receptor subunit alpha, sequence (P02708 whole entry): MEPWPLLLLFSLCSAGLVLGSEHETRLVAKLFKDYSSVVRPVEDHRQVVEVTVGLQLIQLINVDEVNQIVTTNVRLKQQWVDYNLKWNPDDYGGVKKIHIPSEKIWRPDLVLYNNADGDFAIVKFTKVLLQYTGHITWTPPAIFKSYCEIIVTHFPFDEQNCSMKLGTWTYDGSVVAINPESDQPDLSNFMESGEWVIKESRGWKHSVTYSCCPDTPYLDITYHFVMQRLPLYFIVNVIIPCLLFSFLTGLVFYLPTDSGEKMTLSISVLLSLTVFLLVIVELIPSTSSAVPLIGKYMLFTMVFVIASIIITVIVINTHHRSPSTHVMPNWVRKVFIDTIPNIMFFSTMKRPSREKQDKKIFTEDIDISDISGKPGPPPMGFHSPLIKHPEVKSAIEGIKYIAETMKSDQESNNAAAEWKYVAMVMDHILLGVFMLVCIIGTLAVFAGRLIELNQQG

[11] = target: Indoleamine 2,3-dioxygenase 1 (Mus musculus) (UniProt P28776); assay: In vivo inhibition of IDO1 in nu/nu mouse xenografted with human SK-OV-3 cells assessed as reduction in kynurenine level at 10 mg/kg, po qd by HPLC-MS/MS analysis relative to control; format: functional, organism-based
Indoleamine 2,3-dioxygenase 1 (Mus musculus), sequence (P28776 whole entry, looked up): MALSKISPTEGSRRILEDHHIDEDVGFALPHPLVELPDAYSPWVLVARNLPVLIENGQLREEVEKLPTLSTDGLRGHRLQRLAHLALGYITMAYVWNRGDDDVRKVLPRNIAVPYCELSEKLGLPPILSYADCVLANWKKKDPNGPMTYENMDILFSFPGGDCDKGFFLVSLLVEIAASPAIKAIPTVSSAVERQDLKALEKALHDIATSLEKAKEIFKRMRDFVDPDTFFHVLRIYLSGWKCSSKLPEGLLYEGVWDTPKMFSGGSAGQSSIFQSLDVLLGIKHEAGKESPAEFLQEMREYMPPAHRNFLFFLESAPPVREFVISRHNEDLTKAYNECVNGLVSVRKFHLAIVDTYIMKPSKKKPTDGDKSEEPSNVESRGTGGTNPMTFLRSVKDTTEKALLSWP

[12] = Metabolic stability in mouse hepatocytes assessed as UGT-mediated compound glucuronidation by measuring half life; format: ADME, cell-based, Hepatocyte
[13] = AUC in rat at 6 mg/kg, po; format: ADME, organism-based; design: dose 6 mg/kg; conditions: in vivo
[14] = target: Indoleamine 2,3-dioxygenase 1 (Mus musculus) (UniProt P28776); assay: In vivo inhibition of IDO1 in nu/nu mouse xenografted with human SK-OV-3 cells assessed as reduction in kynurenine level at 3 mg/kg, po qd by HPLC-MS/MS analysis relative to control; format: functional, organism-based
[15] = AUC in dog at 5 mg/kg, po; format: ADME, organism-based, Canis lupus familiaris; design: dose 5 mg/kg; conditions: in vivo
alpha7 nAChR = alpha7 nAChR (Homo sapiens, UniProt P36544); assay: Inhibition of alpha7 nAChR (unknown origin) relative to control; conditions: read-out: Imax
alpha7 nAChR, sequence (P36544 whole entry): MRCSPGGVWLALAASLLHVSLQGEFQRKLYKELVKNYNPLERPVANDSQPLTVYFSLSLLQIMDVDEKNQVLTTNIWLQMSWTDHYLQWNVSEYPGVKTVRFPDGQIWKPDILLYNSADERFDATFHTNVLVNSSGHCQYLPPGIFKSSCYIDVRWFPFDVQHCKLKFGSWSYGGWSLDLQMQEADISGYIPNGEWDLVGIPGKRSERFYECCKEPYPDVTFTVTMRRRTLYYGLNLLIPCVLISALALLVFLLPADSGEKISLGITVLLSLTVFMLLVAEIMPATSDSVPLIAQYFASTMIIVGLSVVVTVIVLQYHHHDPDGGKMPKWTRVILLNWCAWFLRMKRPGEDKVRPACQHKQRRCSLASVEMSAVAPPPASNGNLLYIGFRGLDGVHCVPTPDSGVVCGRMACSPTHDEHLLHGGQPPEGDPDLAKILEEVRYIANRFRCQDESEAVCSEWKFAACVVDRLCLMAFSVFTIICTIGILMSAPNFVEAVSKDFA

[16] = target: UDP-glucuronosyltransferases (UGTs) (Homo sapiens, UniProt O60656+O75310+O75795+P06133+P0DTE4+P0DTE5+P16662+P19224+P22309+P22310+P35503+P35504+P36537+P54855+Q6UWM9+Q9BY64+Q9HAW7+Q9HAW8+Q9HAW9); assay: Metabolic stability in human hepatocytes assessed as UGT-mediated compound glucuronidation by measuring half life; format: ADME, cell-based, Hepatocyte
[17] = AUC in mouse at 6 mg/kg, po; format: ADME, organism-based; design: dose 6 mg/kg; conditions: in vivo
[18] = Inhibition of calcium channel (unknown origin) by patch clamp method; design: species or system Homo sapiens
Cytochrome P450 2C8 = target: T1, Cytochrome P450 2C8 (Homo sapiens, UniProt P10632); assay: Inhibition of human CYP2C8; format: ADME
T1 sequence (P10632 whole entry): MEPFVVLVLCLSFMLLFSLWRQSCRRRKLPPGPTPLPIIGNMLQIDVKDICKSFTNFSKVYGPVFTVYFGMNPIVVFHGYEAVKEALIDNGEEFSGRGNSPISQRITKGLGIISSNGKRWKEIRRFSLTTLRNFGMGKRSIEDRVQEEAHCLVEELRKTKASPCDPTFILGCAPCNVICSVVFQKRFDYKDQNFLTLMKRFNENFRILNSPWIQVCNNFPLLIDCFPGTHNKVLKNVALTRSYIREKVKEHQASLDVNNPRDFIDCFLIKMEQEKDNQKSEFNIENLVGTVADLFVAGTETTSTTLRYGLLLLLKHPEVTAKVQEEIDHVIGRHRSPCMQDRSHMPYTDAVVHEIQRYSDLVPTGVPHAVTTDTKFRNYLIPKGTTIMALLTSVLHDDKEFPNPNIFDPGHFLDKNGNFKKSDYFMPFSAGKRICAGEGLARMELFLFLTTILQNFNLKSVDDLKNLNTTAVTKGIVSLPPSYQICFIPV

[19] = Volume of distribution at steady state in rat at 0.5 mg/kg, iv; format: ADME, organism-based; conditions: in vivo
[20] = AUC in cynomolgus monkey at 1 mg/kg, iv; format: ADME, organism-based, Macaca fascicularis; design: dose 1 mg/kg; conditions: in vivo
[21] = AUC (0 to 24 hrs) in nu/nu mouse xenografted with human SK-OV-3 cells measured in tumor at 10 mg/kg, po qd by uHPLC-MS/MS analysis; format: ADME, organism-based; design: time < 24 hr, route oral, dose 10 mg/kg
[22] = target: Indoleamine 2,3-dioxygenase 1 (Homo sapiens, UniProt P14902); assay: Inhibition of IDO1 in IFNgamma/LPS-stimulated human whole blood preincubated for 4 hrs followed by IFNgamma/LPS stimulation and incubated for 18 hrs by Rapid-fire mass spectrometry analysis; format: tissue-based
Indoleamine 2,3-dioxygenase 1, sequence (P14902 whole entry): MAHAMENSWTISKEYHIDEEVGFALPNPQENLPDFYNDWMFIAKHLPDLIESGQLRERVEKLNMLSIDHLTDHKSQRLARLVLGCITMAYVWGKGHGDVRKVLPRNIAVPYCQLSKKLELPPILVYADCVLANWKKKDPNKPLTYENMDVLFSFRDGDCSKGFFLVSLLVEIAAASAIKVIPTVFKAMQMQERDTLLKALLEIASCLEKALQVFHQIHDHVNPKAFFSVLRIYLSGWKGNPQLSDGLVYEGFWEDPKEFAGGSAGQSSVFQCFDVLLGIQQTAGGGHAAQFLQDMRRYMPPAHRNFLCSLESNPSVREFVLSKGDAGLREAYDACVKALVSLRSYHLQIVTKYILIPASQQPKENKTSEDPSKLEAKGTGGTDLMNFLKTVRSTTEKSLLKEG

Homo sapiens = organism: Homo sapiens; assay: Inhibition of sodium channel (unknown origin) at 10 uM and 1 to 4 Hz by patch clamp method relative to control
[23] = Protein binding in mouse plasma assessed as free fraction; format: ADME, cell-free
[24] = AUC in mouse at 0.5 mg/kg, iv; format: ADME, organism-based; design: dose 0.5 mg/kg; conditions: in vivo
Cytochrome P450 = Cytochrome P450 (Homo sapiens, UniProt P04798+P05177+P05181+P08684+P10632+P10635+P11509+P11712+P13584+P20813+P20815+P20853+P24462+P24903+P33260+P33261+P51589+P78329+P98187+Q02928+Q08477+Q16678+Q16696+Q5TCH4+Q6VVX0+Q7Z449+Q8TAV3+Q96SQ9+Q9HB55); assay: Metabolic stability in human hepatocytes assessed as CYP450-mediated compound metabolism by measuring half life; format: ADME, cell-based, Hepatocyte
[25] = Metabolic stability in dog hepatocytes assessed as UGT-mediated compound glucuronidation by measuring half life; format: ADME, cell-based, Canis lupus familiaris, Hepatocyte
[26] = Metabolic stability in rat hepatocytes assessed as CYP450-mediated compound metabolism by measuring half life; format: ADME, cell-based, Hepatocyte
[27] = Oral bioavailability in cynomolgus monkey at 5 mg/kg; format: ADME, organism-based, Macaca fascicularis; conditions: in vivo
[28] = Half life in mouse at 0.5 mg/kg, iv; format: ADME, organism-based; conditions: in vivo
[29] = AUC (0 to 24 hrs) in nu/nu mouse xenografted with human SK-OV-3 cells measured in tumor at 30 mg/kg, po qd by uHPLC-MS/MS analysis; format: ADME, organism-based; design: time < 24 hr, route oral, dose 30 mg/kg
[30] = AUC in dog at 1 mg/kg, iv; format: ADME, organism-based, Canis lupus familiaris; design: dose 1 mg/kg; conditions: in vivo
[31] = Volume of distribution at steady state in cynomolgus monkey at 1 mg/kg, iv; format: ADME, organism-based, Macaca fascicularis; conditions: in vivo
in vitro = conditions: mouse, liver microsomes
Description: Metabolic stability in mouse liver microsomes assessed as parent compound remaining at 0.5 uM measured after 10 mins

Cytochrome P450 2C19, sequence (P33261 whole entry): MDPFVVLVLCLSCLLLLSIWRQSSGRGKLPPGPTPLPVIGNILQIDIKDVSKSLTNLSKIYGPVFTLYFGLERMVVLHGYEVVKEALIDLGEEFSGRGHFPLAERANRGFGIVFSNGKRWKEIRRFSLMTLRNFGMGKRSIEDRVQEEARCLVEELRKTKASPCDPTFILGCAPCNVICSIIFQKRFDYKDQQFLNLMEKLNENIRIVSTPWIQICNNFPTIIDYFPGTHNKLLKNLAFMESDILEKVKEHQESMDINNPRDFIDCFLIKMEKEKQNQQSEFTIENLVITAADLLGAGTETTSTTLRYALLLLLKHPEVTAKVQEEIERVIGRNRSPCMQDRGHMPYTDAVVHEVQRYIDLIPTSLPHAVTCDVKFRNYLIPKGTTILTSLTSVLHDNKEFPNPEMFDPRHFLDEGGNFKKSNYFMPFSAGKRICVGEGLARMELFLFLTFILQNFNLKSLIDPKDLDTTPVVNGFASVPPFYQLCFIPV

- IC50 (Cytochrome P450 2C19): 3370 nM
- AUC [1]: 7.1 µM·h
- t1/2 [2]: 2 min
- t1/2 [3]: 19 min
- Fu [4]: < 0.3%
- bioavailability [5]: 127%
- F [6]: 152%
- Papp [7]: 283 ×10⁻⁶ cm/s
- half-life [8]: 10 min
- IC50 (Cytochrome P450 2C9): 740 nM
- Papp B→A [9]: 5.5 ×10⁻⁶ cm/s
- IC50 [10]: 12300 nM
- inhibition [11]: 58%
- half-life [12]: > 120 min
- AUC [13]: 28.2 µM·h
- inhibition [14]: 45%
- AUC [15]: 17.4 µM·h
- Emax (alpha7 nAChR): 20%
- half-life [16]: 120 min
- AUC [17]: 12.6 µM·h
- IC50 [18]: > 25000 nM
- IC50 (Cytochrome P450 2C8): 1390 nM
- Vdss [19]: 0.97 L/kg
- AUC [20]: 3.4 µM·h
- AUC at 24 h [21]: 21.1 µM·h
- IC50 [22]: 25 nM
- inhibition (Homo sapiens): < 20%
- Fu [23]: < 0.2%
- AUC [24]: 0.69 µM·h
- half-life (Cytochrome P450): 14 min
- half-life [25]: 33 min
- half-life [26]: 10 min
- bioavailability [27]: 42%
- t1/2 [28]: 8 min
- AUC at 24 h [29]: 61 µM·h
- AUC [30]: 8.7 µM·h
- Vdss [31]: 1 L/kg
- remaining at 10 min, 0.5 µM (in vitro): 21%
Compound: C[C@@H](NC(=O)c1ccc(Cl)cc1)[C@H]1CC[C@@H](c2ccnc3ccc(F)cc32)CC1
